Laboratory results published in article PMC4348537, “Discovery of Novel New Delhi Metallo-β-Lactamases-1 Inhibitors by Multistep Virtual Screening” (PLoS ONE, 2015).

How the values were obtained:
[1] = target: T1, NDM-1 (New Delhi metallo-β-lactamase-1) (Klebsiella pneumoniae, UniProt C7C422); experiment: nitrocefin hydrolysis assay with purified enzyme, dose-response; similar with […] Triton X-100; type: biochemical
T1 construct: gene blaNDM-1

[2] = target: T1, NDM-1 (New Delhi metallo-β-lactamase-1); experiment: steady-state hydrolysis kinetics at […] nm, Km by Lineweaver-Burk plot; type: biochemical

T1 sequence (C7C422 29-270 limits assumed): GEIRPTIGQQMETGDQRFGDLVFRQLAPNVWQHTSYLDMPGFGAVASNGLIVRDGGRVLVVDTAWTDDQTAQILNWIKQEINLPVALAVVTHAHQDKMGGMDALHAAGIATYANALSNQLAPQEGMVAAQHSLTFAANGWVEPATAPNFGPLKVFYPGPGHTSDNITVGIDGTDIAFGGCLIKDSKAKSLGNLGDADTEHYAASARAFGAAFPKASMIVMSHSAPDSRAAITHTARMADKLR

| Compound | IC50 [1] [µM] | Km [2] [µM] |
| --- | --- | --- |
| Cc1cc(C)c(NC(=O)CSc2ncc3c(n2)-c2ccc(Cl)cc2N(C)S3(=O)=O)c(C)c1 [VNI-24] | 37.6 ± 0.9 | – |
| CCOc1ccc(S(=O)(=O)N2CCN(c3cc(Nc4ccc(C)cc4)nc(C)n3)CC2)cc1 [VNI-34] | 31.4 ± 1.2 | – |
| O=C(Nc1cccc2ccccc12)C1CCN(S(=O)(=O)c2cccc3nonc23)CC1 [VNI-41] | 29.6 ± 1.3 | – |
| O=C(Cc1cccs1)N[C@@H]1C(=O)N2C(C(=O)O)=C(/C=C/c3ccc([N+](=O)[O-])cc3[N+](=O)[O-])CS[C@H]12 [nitrocefin] | – | 9.54 ± 0.43 |
